Consider 6 compounds from patent US9393244B2, “Increasing parkin activity by administering a deubiquitinating enzyme inhibitor” (Georgetown University, priority 2013, dated 2016).

Peptide text beside a SMILES is read from it. * marks the point of attachment. Cbz = O=C(OCc1ccccc1)*

For one series, the target named is T1, 20S proteasome (Homo sapiens, UniProt P28074).
T1 construct: endogenous in cells; host or cells: human M17 neuroblastoma cells
Nature of the series: Chymotrypsin-like proteasome activity assay in M17 cells. It counts as cell-based. As to conditions: for effects of USP13 overexpression on proteasome activity: shRNA with USP13 overexpression. How it is done:
(§1) To further determine whether USP13 targets parkin, M17 cells were transfected with 3 μg lentiviral plasmids containing parkin, USP13 or different shRNA USP13 clones (FIG. 27A) for 48 hr. The expression level of the shRNAs was determined by routine stereology of the GFP and VS-tagged lentivirus to ensure equal expression of lentiviral plasmids. USP13 gene expression level is verified by PCR. Co-expression of USP13 and parkin led to an increase (134%) in parkin level compared to parkin alone (FIG. 27A, 1st blot, N=4), but shRNA expression reduced USP13 and parkin levels relative to actin (FIG. 27A). […] To ascertain that manipulation of USP13 expression affects protein clearance, the activity of the 20S proteasome activity was measured using chymotrypsin-like assays. Proteasome activity was inhibited after 2 hr treatment with 20 μM proteasome inhibitor MG132 compared to control (LacZ) or parkin alone (FIG. 27B, N=4).

For another series, the system named is USP10. As to the kind of experiment: Western blot of STEN (soluble) extracts of M17 cells, endogenous USP10 level. As to conditions: M17 cells transfected with 3 μg lentiviral plasmids for 48 hr; FIG. 27A 2nd blot. The format is cell-based, human. As to the method: as §1
(In general: A western blot detects proteins with antibodies after separation by electrophoresis.)

In a further series the test system is USP13. Nature of the series: Western blot of STEN (soluble) extracts of M17 cells, USP13 level. The format is cell-based, human. As to conditions: M17 cells transfected with 3 μg lentiviral plasmids for 48 hr; FIG. 27A 1st blot. How it is done: as §1
For the next series, the system named is parkin. As to the kind of experiment: Western blot of STEN (soluble) extracts of M17 cells, parkin level. The format is cell-based, human. As to conditions: M17 cells transfected with 3 μg lentiviral plasmids for 48 hr; FIG. 27A 3rd blot. As to the method: as §1

Regarding `CC(C)C[C@@H](C=O)NC(=O)[C@H](CC(C)C)NC(=O)[C@H](CC(C)C)NC(=O)OCc1ccccc1` [MG132, reference compound] (Cbz-Leu-Leu-Leu-aldehyde), the proteasome activity entry on 20S proteasome (2 hr treatment with 20 μM, compared to control (LacZ) or parkin alone, N=4) is “inhibited”; on 20S proteasome (cells co-expressing USP13 with parkin) it was “further inhibited”. In addition, on 20S proteasome (MG132 added to shRNA (F03, F02) conditions), the “effect on shRNA-mediated increase/reversal of proteasome activity” value is reported as “blocked these effects”.

As for “E07: USP13 shRNA clone, 5′ TTTCCAGTGAAGTACACAG 3′ (SEQ ID NO: 1)”, the “effect on USP10 level” value in the series with USP10 is “without any effects”.

As to “E08: USP13 shRNA clone, 5′ TATTCGTTGCTCGTAGTGC 3′(SEQ ID NO: 5)”, the “effect on USP13 level” value in the series with USP13 is “did not produce any significant effects”. The “effect on USP10 level” value with USP10 is “did not produce any significant effects”. Further, in the series on parkin, the “effect on parkin level” value is recorded as “did not produce any significant effects”.

Take “F02: USP13 shRNA clone, 5′ TCTTGTAGACCCTGTCGCC 3′ (SEQ ID NO: 4)”: in the series with USP10, the “effect on USP10 level” value is listed as “without any effects”. Moreover, the “effects of USP13 overexpression on proteasome activity” value with 20S proteasome was “completely reversed”.

As for “F03: USP13 shRNA clone, 5′ TTTCTCGCAGGTCGCATCT 3′ (SEQ ID NO: 3)”, the “effect on USP10 level” value in the series with USP10 is reported as “without any effects”. Also, the “increase of proteasome activity” value with 20S proteasome (blocking USP13 with shRNA, compared to control) is 14%. For the same compound, the “effects of USP13 overexpression on proteasome activity” value with 20S proteasome is “completely reversed”.

With “F04: USP13 shRNA clone, 5′AACTTAGTCATCTGTGTGT 3′ (SEQ ID NO: 2)”, the “effect on USP10 level” value with USP10 is on record as “without any effects”.
